Test results published in the supplement of paper PMC10307832.

What was measured:
Experiment in all cases: relative viability (nuclei count vs DMSO), 5 days (fraction); higher = more cells survive
XMD14-99 + Bortezomib = compound: CN1CCN(CC1)C2=CC(=C(C=C2)NC3=NC(=C(S3)C(=O)C4=C(C=CC=C4Cl)Cl)N)OC [XMD14-99] + CC(C)C[C@H](NC(=O)[C@H](Cc1ccccc1)NC(=O)c1cnccn1)B(O)O [Bortezomib] (partner 0.002 µM)
Outline: (§1)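 For relative viability, nuclei counts in treated wells were divided by those in vehicle wells. Lung cancer cell lines had been pin-tool dosed in 1536-well plates the day after seeding and cultured for 5 days, then fixed and stained in one step (final 0.05% Triton X-100, 1% formaldehyde, 1 ug/ml Hoechst) and imaged at 4×. Doses were one drug alone or a fixed anchor-drug dose plus five library-drug doses (not always all listed) in √10 steps, and values are duplicate-plate medians.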

AZD1208 + Dasatinib = compound: N[C@@H]1CCCN(c2c(/C=C3\SC(=O)NC3=O)cccc2-c2ccccc2)C1 [AZD1208] + Cc1nc(Nc2ncc(C(=O)Nc3c(C)cccc3Cl)s2)cc(N2CCN(CCO)CC2)n1 [Dasatinib] (partner 0.075 µM)
Outline: as §1

XMD14-99 + Decitabine = compound: CN1CCN(CC1)C2=CC(=C(C=C2)NC3=NC(=C(S3)C(=O)C4=C(C=CC=C4Cl)Cl)N)OC [XMD14-99] + Nc1ncn([C@H]2C[C@H](O)[C@@H](CO)O2)c(=O)n1 [Decitabine] (partner 2 µM)
Outline: as §1

AZD1208 + Luminespib = compound: N[C@@H]1CCCN(c2c(/C=C3\SC(=O)NC3=O)cccc2-c2ccccc2)C1 [AZD1208] + CCNC(=O)c1noc(-c2cc(C(C)C)c(O)cc2O)c1-c1ccc(CN2CCOCC2)cc1 [Luminespib] (partner 0.01 µM)
Outline: as §1

Cell Line	relative viability (XMD14-99 + Bortezomib; first compound 0.08 µM)	relative viability (XMD14-99 + Bortezomib; first compound 0.8 µM)	relative viability (XMD14-99 + Bortezomib; first compound 2.53 µM)	relative viability (XMD14-99 + Bortezomib; first compound 8 µM)	relative viability (AZD1208 + Dasatinib; first compound 0.08 µM)	relative viability (AZD1208 + Dasatinib; first compound 0.253 µM)	relative viability (AZD1208 + Dasatinib; first compound 0.8 µM)	relative viability (AZD1208 + Dasatinib; first compound 2.53 µM)	relative viability (AZD1208 + Dasatinib; first compound 8 µM)	relative viability (XMD14-99 + Decitabine; first compound 0.08 µM)	relative viability (XMD14-99 + Decitabine; first compound 0.8 µM)	relative viability (XMD14-99 + Decitabine; first compound 2.53 µM)	relative viability (XMD14-99 + Decitabine; first compound 8 µM)	relative viability (AZD1208 + Luminespib; first compound 0.08 µM)	relative viability (AZD1208 + Luminespib; first compound 0.253 µM)	relative viability (AZD1208 + Luminespib; first compound 0.8 µM)	relative viability (AZD1208 + Luminespib; first compound 2.53 µM)	relative viability (AZD1208 + Luminespib; first compound 8 µM)
HOP-62	0.604	0.694	0.863	0.605	0.679	0.712	0.541	0.572	0.647	0.23	0.226	0.237	0.273	0.918	1.07	0.904	0.916	0.956
IA-LM	0.783	0.79	0.47	0.394	–	–	–	–	–	–	–	–	–	–	–	–	–	–
LC-2-ad	0.993	0.978	1	0.732	0.525	0.464	0.465	0.51	0.459	0.776	0.727	0.777	0.745	0.943	0.984	0.968	0.962	1.02
LCLC-97TM1	0.801	0.629	0.625	0.33	0.88	0.827	0.82	0.631	0.891	0.226	0.233	0.236	0.255	0.829	0.754	0.604	0.632	0.727
LCLC-103H	0.991	1.08	1.07	0.995	0.448	0.501	0.421	0.448	0.33	0.715	0.739	0.721	0.682	1.01	1.01	0.995	0.859	0.944
LK-2	–	–	–	–	0.273	0.224	0.17	0.167	0.178	0.258	0.297	0.328	0.21	0.17	0.187	0.2	0.184	0.17
LOU-NH91	0.498	0.416	0.451	0.447	0.57	0.551	0.496	0.496	0.491	0.868	0.853	0.807	0.776	0.34	0.342	0.365	0.313	0.322
LU99A	1.17	1.06	1.11	0.956	0.451	0.556	0.363	0.572	0.389	0.852	0.918	0.784	0.669	0.306	0.292	0.204	0.182	0.238
LXF-289	1.04	0.978	0.945	0.841	0.227	0.175	0.195	0.181	0.15	0.378	0.371	0.37	0.36	0.601	0.584	0.659	0.607	0.527
NCI-H358	–	–	–	–	0.138	0.142	0.139	0.116	0.142	0.231	0.187	0.203	0.174	0.38	0.307	0.514	0.319	0.122
